Measured values: ChEMBL document CHEMBL4393659, “Insights into the chemistry and therapeutic potential of furanones: A versatile pharmacophore” (Eur J Med Chem, 2019)
Values after ≈ are worked out from the molar mass of the structure shown.

Key:
[1] = Acute toxicity in Swiss albino mouse assessed as reduction in mortality of animal at 200 to 800 mg/kg , ip observed for 8 days; assay type: organism-based; conditions: in vivo
Candida albicans [2] = assay: Antifungal activity against Candida albicans ATCC 90028 assessed as reduction in fungal cell viability measured after 24 and 48 hrs by spectrophotometry; assay type: functional
Rhizopus arrhizus = assay: Antifungal activity against Rhizopus oryzae assessed as reduction in fungal cell viability incubated for 48 hrs by broth microdilution method; assay type: functional
Staphylococcus aureus [3] = assay: Antibacterial activity against Staphylococcus aureus ATCC 29737 assessed as reduction in bacterial cell viability incubated for 24 hrs by broth microdilution method; assay type: functional; conditions: ATCC 29737, 24 h
Pseudomonas aeruginosa = assay: Antibacterial activity against Pseudomonas aeruginosa NCLM-2035 assessed as reduction in bacterial cell viability incubated for 24 hrs by broth microdilution method; assay type: functional; conditions: NCLM-2035, 24 h
Candida albicans [4] = assay: Antifungal activity against Candida albicans assessed as reduction in fungal cell viability incubated for 48 hrs by broth microdilution method; assay type: functional
Aspergillus niger = assay: Antifungal activity against Aspergillus niger assessed as reduction in fungal cell viability incubated for 48 hrs by broth microdilution method; assay type: functional
Escherichia coli [5] = assay: Antibacterial activity against Escherichia coli ATCC 8739 assessed as reduction in bacterial cell viability incubated for 24 hrs by broth microdilution method; assay type: functional; conditions: ATCC 8739, 24 h
Escherichia coli [6] = assay: Antibacterial activity against Escherichia coli assessed as inhibition zone incubated for 24 hrs by disk diffusion method relative to control; assay type: functional
Plasmodium falciparum = assay: Antimalarial activity against Plasmodium falciparum infected in human blood assessed as reduction in cell viability incubated for 72 hrs by Giemsa stain based assay; assay type: functional
Aspergillus fumigatus [7] = assay: Antifungal activity against Aspergillus fumigatus assessed as reduction in fungal cell viability measured after 24 and 48 hrs by broth microdilution method; assay type: functional
[8] = target: GABA-A receptor; anion channel; assay: Displacement of [35S]TBPS from GABAA (unknown origin) incubated for 90 mins by scintillation counting method; assay type: protein-complex assay, Homo sapiens
Mus musculus [9] = assay: Anticonvulsant activity in ip dosed CF-1 mouse assessed as protection against PTZ-induced seizures measured after 30 mins […]; assay type: functional
Phospholipase A2 = Phospholipase A2 (Apis mellifera, UniProt P00630); assay: Inhibition of bee venom phospholipase A2 preincubated for 1 hr followed by addition of phosphotidylcholine and 1-palmitoyl-2-(1-14C) palmitoyl further incubated for 10 mins and measured after 15 secs by scintillation counting method
Sequence of Phospholipase A2 (P00630 whole entry): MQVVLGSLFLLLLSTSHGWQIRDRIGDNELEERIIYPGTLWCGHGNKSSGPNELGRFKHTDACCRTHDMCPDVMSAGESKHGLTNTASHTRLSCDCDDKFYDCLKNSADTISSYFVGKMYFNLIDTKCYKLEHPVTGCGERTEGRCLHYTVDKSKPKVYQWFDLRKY

Escherichia coli [10] = assay: Antibacterial activity against Escherichia coli; assay type: functional
[11] = target: Prostaglandin G/H synthase 2 (Homo sapiens, UniProt P35354); assay: Inhibition of recombinant human COX2 expressed in baculovirus infected Sf9 cells
Sequence of Prostaglandin G/H synthase 2 (P35354 whole entry): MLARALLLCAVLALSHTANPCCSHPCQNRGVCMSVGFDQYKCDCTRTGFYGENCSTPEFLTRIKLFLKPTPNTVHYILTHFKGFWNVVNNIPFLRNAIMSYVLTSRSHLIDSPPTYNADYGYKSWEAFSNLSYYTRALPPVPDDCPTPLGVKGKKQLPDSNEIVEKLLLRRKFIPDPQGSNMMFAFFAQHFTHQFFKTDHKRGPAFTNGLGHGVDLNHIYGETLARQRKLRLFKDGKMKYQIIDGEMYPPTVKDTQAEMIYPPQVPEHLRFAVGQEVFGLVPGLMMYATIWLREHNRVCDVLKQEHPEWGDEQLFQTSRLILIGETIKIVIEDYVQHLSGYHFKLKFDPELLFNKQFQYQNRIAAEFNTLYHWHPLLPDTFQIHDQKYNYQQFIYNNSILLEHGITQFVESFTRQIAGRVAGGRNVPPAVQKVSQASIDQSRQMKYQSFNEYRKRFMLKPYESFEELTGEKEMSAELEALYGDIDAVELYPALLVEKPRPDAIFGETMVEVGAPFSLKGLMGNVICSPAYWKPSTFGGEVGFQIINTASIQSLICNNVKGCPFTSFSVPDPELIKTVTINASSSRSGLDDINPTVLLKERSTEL

Lichtheimia corymbifera = assay: Antifungal activity against Absidia corymbifera assessed as reduction in fungal cell viability by broth dilution method; assay type: functional
Aspergillus fumigatus [12] = assay: Antifungal activity against Aspergillus fumigatus assessed as reduction in fungal cell viability by broth dilution method; assay type: functional
Staphylococcus aureus [13] = assay: Antibacterial activity against Staphylococcus aureus; assay type: functional
Mus musculus [14] = assay: Anticonvulsant activity in ip dosed mouse assessed as reduction in PTZ-induced seizures pretreated for 30 mins followed by PTZ addition; assay type: functional
Mus musculus [15] = assay: Analgesic activity in Swiss albino mouse assessed as inhibition of acetic acid induced writhing at 20 mg/kg , po incubated for 3 hrs followed by acetic acid administered and observed for 5 to 15 mins relative to control; assay type: functional
Rattus norvegicus [16] = assay: Antiinflammatory activity in Wistar albino rat assessed as inhibition of carrageenan-induced paw edema at 20 mg/kg , po incubated for 30 mins followed by carrageenan addition and measured after 3 hrs by plethysmometry relative to control; assay type: functional
Rattus norvegicus [17] = assay: Antiinflammatory activity in Wistar rat assessed as inhibition of carrageenan-induced edema measured upto 4 hrs; assay type: functional
[18] = Ulcerogenicity in Wistar rat assessed as gastric lesions by measuring ulcer severity index at 60 mg/kg , po measured after 17 hrs relative to ibuprofen; assay type: toxicity, organism-based; conditions: in vivo
A549 = assay: Cytotoxicity against human A549 cells assessed as reduction in cell viability incubated for 48 hrs by SRB method; assay type: functional; conditions: A549, 48 h, read-out: ED50 (the source's name)
NIH3T3 = assay: Cytotoxicity against mouse NIH/3T3 cells assessed as reduction in cell viability incubated for 48 hrs by SRB method; assay type: functional; conditions: NIH3T3, 48 h, read-out: ED50 (the source's name)
SK-OV-3 = assay: Cytotoxicity against human SKOV3 cells assessed as reduction in cell viability incubated for 48 hrs by SRB method; assay type: functional; conditions: SK-OV-3, 48 h, read-out: ED50 (the source's name)
[19] = tested on: Mycobacterium tuberculosis; assay: Antimycobacterial activity against Mycobacterium tuberculosis H37Rv; assay type: functional, organism-based
Liver = assay: Antioxidant activity in Wistar rat liver microsomes assessed as inhibition of AAPH-induced MDA production at 100 mM incubated for 15 mins; assay type: functional; conditions: Microsome

SMILES: COc1cc(C2OC(=O)CC2C(C)=O)cc(OC)c1O (centres undefined)
- LD50 at 192 h [1]: 200 mg/kg

SMILES: CC(=O)OCC1C=C(c2ccc(Cl)c(Cl)c2)C(=O)O1 (centres undefined)
- MIC (Candida albicans [2]): 2 µg/mL (≈ 6.64 µM)

SMILES: O=C1OC(c2ccc(Cl)cc2)=C/C1=C\c1ccc(F)cc1
- MIC (Rhizopus arrhizus): 12.5 to 50 µg/mL (≈ 41.6 to 166 µM)
- MIC (Staphylococcus aureus [3]): 12.5 to 50 µg/mL (≈ 41.6 to 166 µM)
- MIC (Pseudomonas aeruginosa): 12.5 to 50 µg/mL (≈ 41.6 to 166 µM)
- MIC (Candida albicans [4]): 12.5 to 50 µg/mL (≈ 41.6 to 166 µM)
- MIC (Aspergillus niger): 12.5 to 50 µg/mL (≈ 41.6 to 166 µM)
- MIC (Escherichia coli [5]): 12.5 to 50 µg/mL (≈ 41.6 to 166 µM)

SMILES: CC1COc2c(N3CCN(C)CC3)c(F)cc3c(=O)c(C(=O)O)cn1c23 (centres undefined) [OFLOXACIN]
- inhibition zone (IZ) (Escherichia coli [6]): 24 mm

SMILES: COc1cccc2cc(/C=C3/CC(c4ccc(Cl)c(Cl)c4)OC3=O)c(Cl)nc12 (centres undefined)
- MIC (Plasmodium falciparum): 0.5 to 0.72 µg/mL (≈ 1.15 to 1.66 µM)

SMILES: CC(C)(C)C(=O)OCC1C=C(c2ccc(Cl)c(Cl)c2)C(=O)O1 (centres undefined)
- MIC (Aspergillus fumigatus [7]): 1.34 µg/mL (≈ 3.9 µM)

SMILES: CCC1(C)CC(C)(C(F)(F)F)OC1=O (centres undefined)
- IC50 [8]: 224 µM
- CD50 (Mus musculus [9]): 47 mg/kg

SMILES: CC(C)(C)C(=O)OC(CCCCCCCCCCCCC(OC(=O)C(C)(C)C)C1=CC(=O)OC1OC(=O)Nc1ccccc1)C1=CC(=O)OC1OC(=O)Nc1ccccc1 (centres undefined)
- IC50 (Phospholipase A2): > 1 µM

SMILES: C[C@@H]1[C@H](O)[C@@H](C)/C=C/C=C/C=C/C=C/C=C/C=C/C=C/[C@H](O[C@@H]2O[C@H](C)[C@@H](O)[C@H](N)[C@@H]2O)C[C@@H]2O[C@](O)(C[C@@H](O)C[C@@H](O)[C@H](O)CC[C@@H](O)C[C@@H](O)CC(=O)O[C@H]1C)C[C@H](O)[C@H]2C(=O)O [AMPHOTERICIN B]
- MIC (Aspergillus fumigatus [7]): 0.5 µg/mL (≈ 0.541 µM)

SMILES: CC(C1CCOC1=O)C(F)(F)F (centres undefined)
- IC50 [8]: 142 µM
- CD50 (Mus musculus [9]): 30 mg/kg

SMILES: O=C1C=C(c2ccc(Br)cc2)O/C1=N\C12CC3CC(CC(C3)C1)C2
- MIC (Escherichia coli [10]): 31 µg/mL (≈ 80.3 µM)

SMILES: O=C1OCCC1CC(F)(F)F (centres undefined)
- IC50 [8]: 105 µM
- CD50 (Mus musculus [9]): 30 mg/kg

SMILES: CS(=O)(=O)c1ccc(C2=C3c4ccccc4CCC3OC2=O)cc1 (centres undefined)
- IC50 [11]: 0.5 to 0.6 µM

SMILES: CC(=O)N1CCN(c2ccc(OCC3COC(Cn4ccnc4)(c4ccc(Cl)cc4Cl)O3)cc2)CC1 (centres undefined) [KETOCONAZOLE]
- MIC (Lichtheimia corymbifera): 16.6 µg/mL (≈ 31.2 µM)
- MIC (Aspergillus fumigatus [12]): 16.6 µg/mL (≈ 31.2 µM)

SMILES: COC(=O)C(Cl)C1(Cl)OC(c2ccc(Cl)cc2)=C(Cl)C1=O (centres undefined)
- MIC (Escherichia coli [10]): 62.5 µg/mL (≈ 169 µM)
- MIC (Staphylococcus aureus [13]): 15.6 µg/mL (≈ 42.2 µM)

SMILES: O=C1C=C(c2ccc(Cl)cc2)O/C1=N\C12CC3CC(CC(C3)C1)C2
- MIC (Escherichia coli [10]): 7.8 µg/mL (≈ 22.8 µM)

SMILES: COc1cccc2cc(/C=C3/CC(c4ccc(C)cc4C)OC3=O)c(Cl)nc12 (centres undefined)
- MIC (Plasmodium falciparum): 0.5 to 0.72 µg/mL (≈ 1.27 to 1.83 µM)

SMILES: O=C1OC(c2ccc(Cl)cc2)=C/C1=C\c1ccc(Br)cc1
- MIC (Rhizopus arrhizus): 12.5 to 50 µg/mL (≈ 34.6 to 138 µM)
- MIC (Staphylococcus aureus [3]): 12.5 to 50 µg/mL (≈ 34.6 to 138 µM)
- MIC (Pseudomonas aeruginosa): 12.5 to 50 µg/mL (≈ 34.6 to 138 µM)
- MIC (Candida albicans [4]): 12.5 to 50 µg/mL (≈ 34.6 to 138 µM)
- MIC (Aspergillus niger): 12.5 to 50 µg/mL (≈ 34.6 to 138 µM)
- MIC (Escherichia coli [5]): 12.5 to 50 µg/mL (≈ 34.6 to 138 µM)

SMILES: CCC1(CC)CC(CCNC(=O)c2ccccc2)OC1=O (centres undefined)
- ED50 (Mus musculus [14]): 89.9 to 285 mg/kg

SMILES: Cc1ccc2c(c1)C1=C(c3ccc(S(C)(=O)=O)cc3)C(=O)OC1CC2 (centres undefined)
- IC50 [11]: 0.5 to 0.6 µM

SMILES: O=C1OC(c2ccc3ccccc3c2)=C/C1=C\c1ccc([N+](=O)[O-])cc1
- inhibition in vivo at 20 mg/kg (Mus musculus [15]): 70 to 74%
- inhibition in vivo at 20 mg/kg (Rattus norvegicus [16]): 74.8 to 89.7%

SMILES: O=C1OC(c2ccc3ccccc3c2)=C/C1=C\c1cc2ccccc2nc1Cl
- inhibition (INH) (Rattus norvegicus [17]): 56 - 63%

SMILES: CCC1(CC)CC(CCOC(=O)c2ccc(C)cc2)OC1=O (centres undefined)
- ED50 (Mus musculus [14]): 89.9 to 285 mg/kg

SMILES: CC(C)Cc1ccc(C2=C/C(=C\c3ccccc3Cl)C(=O)O2)cc1
- UI [18]: 0.2

SMILES: O=C1C=C/C(=C\c2cccc([N+](=O)[O-])c2)O1
- EC50 (A549): 5.9 to 21 µg/mL (≈ 27.2 to 96.7 µM)
- EC50 (NIH3T3): 5.9 to 21 µg/mL (≈ 27.2 to 96.7 µM)
- EC50 (SK-OV-3): 5.9 to 21 µg/mL (≈ 27.2 to 96.7 µM)

SMILES: COc1ccc(C2=C/C(=C/c3ccc(N(C)C)cc3)C(=O)O2)cc1
- inhibition zone (IZ) (Escherichia coli [6]): 16 mm

SMILES: COc1cc(/C=C2\C=C(c3cccc(Br)c3)OC2=O)ccc1OC(C)=O
- IC50 [19]: 5.05 µg/mL (≈ 12.2 µM)
- IC90 [19]: 7.85 µg/mL (≈ 18.9 µM)

SMILES: Cc1c(C)c2c(c(C)c1O)CCC(C)(CC1OC[C@@H]([C@H]3OC(=O)C(O)=C3O)O1)O2 (some centres undefined)
- inhibition (Liver): 100%

SMILES: Cc1ccc2cc(/C=C3\C=C(c4ccc(-c5ccccc5)cc4)OC3=O)c(Cl)nc2c1
- inhibition (INH) (Rattus norvegicus [17]): 56 - 63%

SMILES: CC(C)Cc1ccc(C2=C/C(=C\c3ccc(F)cc3)C(=O)O2)cc1
- UI [18]: 0.1
